# Results: publication PMC6434079, “Time-dependent inhibition of PHD2” (Bioscience Reports, 2017)
# Like-named read-outs stand apart in the source and are kept apart here.
# What was measured:
# PHD3 [1] = molecular target: T1, PHD3 (Homo sapiens, UniProt Q9H6Z9); assay: PHD3 IC50 determination (LC/MS/MS, selectivity screening); format: biochemical
# PHD1 [2] = molecular target: T2, PHD1 (Homo sapiens, UniProt Q96KS0); assay: PHD1 IC50 determination (LC/MS/MS, selectivity screening); format: biochemical
# PHD3 [3] = molecular target: T1, PHD3; conditions: read-out: Km for 2-OG, PHD3; 1 μM peptide, 1 mM ascorbic acid, 40 nM enzyme
# FIH1 [4] = molecular target: T3, FIH1 (Homo sapiens, UniProt Q9NWT6); conditions: read-out: Km for 2-OG, FIH1; 1 μM peptide, 1 mM ascorbic acid, 15 nM enzyme
# PHD1 [5] = molecular target: T2, PHD1; conditions: read-out: Km for 2-OG, PHD1; 1 μM peptide, 1 mM ascorbic acid, 50 nM enzyme
# FIH1 [6] = molecular target: T3, FIH1; assay: FIH1 IC50 determination (LC/MS/MS, selectivity screening)
# PHD2 = PHD2 (Homo sapiens, UniProt Q9GZT9); assay: Mechanism of inhibition and Ki determination at increasing 2-OG concentrations; conditions: for mechanism of inhibition of PHD2: IC50 increases linearly with increasing 2-OG concentration
# Chain of PHD2 (Q9GZT9 180-417): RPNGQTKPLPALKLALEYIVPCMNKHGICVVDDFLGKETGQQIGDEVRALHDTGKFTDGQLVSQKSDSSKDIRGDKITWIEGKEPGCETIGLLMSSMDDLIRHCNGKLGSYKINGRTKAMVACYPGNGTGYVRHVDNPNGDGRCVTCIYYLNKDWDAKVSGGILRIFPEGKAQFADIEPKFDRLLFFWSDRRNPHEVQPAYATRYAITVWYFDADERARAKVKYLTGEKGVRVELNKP
# T2 sequence (Q96KS0 163-403): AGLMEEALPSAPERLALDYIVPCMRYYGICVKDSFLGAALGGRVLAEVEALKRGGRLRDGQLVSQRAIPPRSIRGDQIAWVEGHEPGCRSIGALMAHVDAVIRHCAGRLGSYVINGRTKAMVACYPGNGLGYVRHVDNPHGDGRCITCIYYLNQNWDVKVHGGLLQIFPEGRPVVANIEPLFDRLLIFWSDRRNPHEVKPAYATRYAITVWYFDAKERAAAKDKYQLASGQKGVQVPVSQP
# T3 sequence (Q9NWT6 whole entry): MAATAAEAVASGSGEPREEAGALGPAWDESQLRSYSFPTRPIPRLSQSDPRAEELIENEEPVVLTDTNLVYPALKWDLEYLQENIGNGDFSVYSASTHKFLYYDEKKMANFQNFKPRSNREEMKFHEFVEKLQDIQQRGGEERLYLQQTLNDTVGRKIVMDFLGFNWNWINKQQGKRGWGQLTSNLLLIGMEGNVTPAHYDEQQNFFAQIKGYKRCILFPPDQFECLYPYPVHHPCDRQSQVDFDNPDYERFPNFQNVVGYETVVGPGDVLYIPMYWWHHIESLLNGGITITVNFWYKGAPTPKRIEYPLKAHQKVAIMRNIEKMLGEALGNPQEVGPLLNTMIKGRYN
# T1 sequence (Q9H6Z9 whole entry): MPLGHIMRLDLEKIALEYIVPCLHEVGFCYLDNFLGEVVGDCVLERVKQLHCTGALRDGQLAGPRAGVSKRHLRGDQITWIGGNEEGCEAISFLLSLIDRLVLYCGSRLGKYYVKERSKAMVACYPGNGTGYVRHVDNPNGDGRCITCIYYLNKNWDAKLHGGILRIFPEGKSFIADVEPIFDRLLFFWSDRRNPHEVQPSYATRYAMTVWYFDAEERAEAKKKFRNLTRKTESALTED
Structure (SMILES),IC50 (PHD3 [1]) [nM],IC50 (PHD1 [2]) [µM],IC50 (FIH1 [6]) [nM],also measured
CC(C)c1nn(Cc2ccc(-c3ccc(F)cc3)cc2F)c(=O)c(C(=O)NCC(=O)O)c1O [Compound 1],13,0.003,–,–
"O=C(O)CCC(=O)C(=O)O [Compound 2-OG, 2-oxoglutarate]",–,–,–,Km (PHD3 [3]): 0.66 µM; Km (FIH1 [4]): 0.56 µM; Km (PHD1 [5]): 0.31 µM
O=C(O)c1cnn(-c2nc3cc(C(F)(F)F)c(Cl)cc3[nH]2)c1 [Compound 2],25,0.011,5490,–
O=C(O)CNC(=O)c1c(O)n(C2CCCCC2)c(=O)n(C2CCCCC2)c1=O [Compound 3],8,0.015,–,–
Cc1nc(C(=O)NCC(=O)O)c(O)c2ccc(Oc3ccccc3)cc12 [Compound 4],5,0.002,> 10000,mechanism of inhibition of PHD2 (PHD2): compete with 2-OG substrate for binding at the enzyme active site
O=C(O)CNC(=O)c1nc(Cl)c2ccccc2c1O [Compound 5],21,0.016,> 10000,–
O=C(O)CNC(=O)C(=O)O [Compound 6],186,–,191,"IC50 (PHD1 [2]; read-out: PHD1 IC50 (μM)—60 min incubation, 60 min preincubation, 25 nM PHD1, 2 μM 2-OG): 0.851 µM"
N#Cc1cn(-c2c[nH]n(-c3cc(N4CC(F)(F)C4)ncn3)c2=O)nn1 [Compound 7],12,0.02,–,Ki (PHD2): 87 nM; mechanism of inhibition of PHD2 (PHD2): compete with 2-OG substrate for binding at the enzyme active site
O=C(NC(c1ccccc1)c1ccccc1)c1cnc(-c2cccnn2)nc1O [Compound 8],25,0.02,9770,–
Cc1cccnc1CN1CCC2(CC1)C(=O)N(c1ccc(-c3ccccc3)cc1)c1ccccc12 [Compound 9],2040,1.62,> 10000,–
